Measurements: US5856309A, “Amidinopyrroline derivatives, processes for their production and pharmaceutical agents containing these compounds” (Boehringer Mannheim GmbH, priority 1997, dated 1999)
pIC50, pKi: −log10 of the molar value.

Key:
[1] = target: isolated activated GpIIb/IIIa receptor (Homo sapiens, UniProt P05106+P08514); assay: GpIIb/IIIa fibrinogen Elisa; details: inhibition of fibrinogen binding to coated GpIIb/IIIa receptor, optical density at 405 nm
Protocol: The GpIIb/IIIa fibrinogen Elisa is a modification of assays which are described in the following literature: Nachman, R. L. & Leung, L. L. K. (1982): J. Clin. Invest. 69: 263-269 and Wright, P. S. et al. (1993): Biochem. J. 293:263-267.
Microtiter plates were coated overnight with 2 μg/ml isolated activated GpIIb/IIIa receptor. After unbound receptor had been removed by washing several times the surface of the plates is blocked with 1% casein and it is washed again. The test substance is added at the required concentrations and the plates are incubated for 10 minutes while shaking. The natural ligand of the gpIIb/IIIa receptor, fibrinogen, is added. After incubating for 1 hour unbound fibrinogen is removed by washing several times and the bound fibrinogen is determined by means of a peroxidase-conjugated, anti-fibrinogen monoclonal antibody by measuring the optical density at 405 nm in an ELISA instrument. The inhibition of a fibrinogen-GpIIb/IIIa interaction results in a low optical density. The IC50 value was determined by a concentration/effect curve.

[2] = target: T1, bovine pancreatic trypsin (Bos taurus, UniProt P00760); assay: Inhibition of trypsin, kinetic measurement as described for thrombin; format: biochemical; details: measured as described for thrombin, read-out: inhibition constant Ki (trypsin)
T1 construct: purchased Sigma
T1 sequence (P00760 24-246): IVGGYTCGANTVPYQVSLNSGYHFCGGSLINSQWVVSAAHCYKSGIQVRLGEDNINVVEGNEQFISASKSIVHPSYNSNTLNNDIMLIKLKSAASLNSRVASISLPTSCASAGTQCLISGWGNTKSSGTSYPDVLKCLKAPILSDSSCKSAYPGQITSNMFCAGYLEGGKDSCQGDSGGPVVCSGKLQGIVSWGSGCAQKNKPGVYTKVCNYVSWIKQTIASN
Protocol: The kinetic measurements were carried out in 0.1M phosphate buffer which contained 0.2M sodium chloride and 0.5% polyethylene glycol 6000 at a pH=7.5 and 25° C. using the substrate H-(D)-Phe-Pro-Arg-pNA (S-2238 Kabi) and human thrombin (Sigma, specific activity=2150 NIH units/mg) in polystyrene semimicro-cuvettes in a total volume of 1 ml.
For this the reaction was started first by adding 0.03 NIH units thrombin to a 100 μM solution of the substrate and the active substance. In a second experiment substrate was added to a solution of thrombin and the active substance which had been incubated for 5 min. The increase of the concentration of p-nitro-anilide with time was monitored spectrophotometrically for 12 min at 405 nm (UV-VIS spectrophotometer Lambda-2 from the Perkin-Elmer Company). […] The inhibition constant Ki was determined as follows. […] The increase in absorbance at 405 nm caused by the formation of p-nitroanilide was monitored for a time period of 12 min. Measurement points (time versus absorbance) were transferred to a PC at intervals of 20 sec. The rates Vo (changes in absorbance per see; measurements without inhibitor) and Vi (measurements with inhibitor) were determined from the data by linear regression. […] From one measurement series (constant inhibitor concentration, variable substrate concentrations) Km' and Vmax were determined by a non-linear fit to the equation [formula] […]

[3] = system: horse thrombin; assay: Thrombin time in citrate plasma (sphere coagulometer); format: biochemical; details: citrate plasma of healthy donors, 37° C., control ca. 24 seconds
Protocol: A common test in clinical coagulation diagnostics is the thrombin time. This parameter detects the action of thrombin on fibrinogen and the formation of blood clots. Inhibitors of thrombin result in an increased thrombin time.
In order to obtain plasma 9 parts fresh blood from healthy donors are mixed with one part sodium citrate solution (0.11 mol/l) and centrifuged at ca. 3000 rpm for 10 min at room temperature. The plasma was removed by pipette and can be stored for ca. 8 h at room temperature.
200 ul citrate plasma was incubated for 2 min at 37° C. in a sphere coagulometer (KC10 from the Amelung Company). 10 ul dimethylsulfoxide (DMSO) or a solution of the active substance in DMSO was added to 190 ul preheated thrombin reagent (Boehringer Mannheim, GmbH; contains ca. 3 U/ml horse thrombin and 0.0125M Ca2+). A stopwatch was started when this 200 ul solution was added to the plasma and the time point at which coagulation starts was determined. […] [* the experiment was stopped after 5 minutes.]

isolated activated GpIIb/IIIa receptor, sequence (P08514 32-887 limits assumed): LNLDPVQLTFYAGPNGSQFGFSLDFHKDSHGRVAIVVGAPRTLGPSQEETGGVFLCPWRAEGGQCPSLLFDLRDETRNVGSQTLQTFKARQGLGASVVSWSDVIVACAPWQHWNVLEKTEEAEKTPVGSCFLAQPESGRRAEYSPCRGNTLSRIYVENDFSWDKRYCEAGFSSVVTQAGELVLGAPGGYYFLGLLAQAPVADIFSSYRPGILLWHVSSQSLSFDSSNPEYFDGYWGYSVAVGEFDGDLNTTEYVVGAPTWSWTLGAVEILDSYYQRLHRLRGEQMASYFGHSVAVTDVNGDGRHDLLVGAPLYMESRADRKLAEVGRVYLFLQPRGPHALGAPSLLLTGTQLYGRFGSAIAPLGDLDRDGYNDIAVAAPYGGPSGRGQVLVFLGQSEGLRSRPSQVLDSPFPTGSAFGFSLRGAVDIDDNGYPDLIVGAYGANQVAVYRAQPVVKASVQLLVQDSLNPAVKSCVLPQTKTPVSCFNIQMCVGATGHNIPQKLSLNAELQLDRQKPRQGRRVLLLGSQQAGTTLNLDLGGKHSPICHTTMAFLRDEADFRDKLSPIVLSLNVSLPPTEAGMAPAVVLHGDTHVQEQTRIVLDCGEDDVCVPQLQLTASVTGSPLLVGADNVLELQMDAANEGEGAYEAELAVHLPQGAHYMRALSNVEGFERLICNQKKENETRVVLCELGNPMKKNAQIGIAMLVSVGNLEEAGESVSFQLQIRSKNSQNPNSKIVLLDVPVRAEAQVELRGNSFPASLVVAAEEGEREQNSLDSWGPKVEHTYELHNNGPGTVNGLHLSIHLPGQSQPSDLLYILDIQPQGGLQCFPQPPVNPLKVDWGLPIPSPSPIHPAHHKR
isolated activated GpIIb/IIIa receptor, sequence (P08514 891-1039 partner limits assumed): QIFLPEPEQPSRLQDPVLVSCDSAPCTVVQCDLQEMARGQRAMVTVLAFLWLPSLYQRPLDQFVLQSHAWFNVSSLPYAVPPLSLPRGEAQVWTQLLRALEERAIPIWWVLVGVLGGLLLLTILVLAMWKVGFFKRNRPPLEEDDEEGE
isolated activated GpIIb/IIIa receptor, sequence (P05106 27-788): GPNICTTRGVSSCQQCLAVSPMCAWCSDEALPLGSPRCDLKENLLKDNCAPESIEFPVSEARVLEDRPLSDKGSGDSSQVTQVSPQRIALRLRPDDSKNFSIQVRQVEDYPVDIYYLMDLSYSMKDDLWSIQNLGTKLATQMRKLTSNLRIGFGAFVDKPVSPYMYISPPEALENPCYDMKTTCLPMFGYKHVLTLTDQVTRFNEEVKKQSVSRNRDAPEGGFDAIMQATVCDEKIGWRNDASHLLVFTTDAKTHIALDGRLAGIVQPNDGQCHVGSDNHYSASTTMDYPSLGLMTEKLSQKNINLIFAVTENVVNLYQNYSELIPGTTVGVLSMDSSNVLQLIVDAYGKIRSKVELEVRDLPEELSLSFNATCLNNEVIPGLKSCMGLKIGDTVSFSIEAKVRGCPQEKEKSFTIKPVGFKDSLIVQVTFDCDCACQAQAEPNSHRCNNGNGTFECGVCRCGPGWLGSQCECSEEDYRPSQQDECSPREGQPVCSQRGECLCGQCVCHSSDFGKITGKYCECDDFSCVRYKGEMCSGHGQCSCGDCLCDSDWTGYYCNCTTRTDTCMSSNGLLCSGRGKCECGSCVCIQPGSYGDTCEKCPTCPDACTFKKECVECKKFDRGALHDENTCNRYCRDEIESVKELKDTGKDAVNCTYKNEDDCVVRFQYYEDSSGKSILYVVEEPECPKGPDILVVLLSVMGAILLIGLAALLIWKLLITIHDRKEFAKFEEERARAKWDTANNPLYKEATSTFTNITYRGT

Compound `N=C(N)N1CC=C(CC(NC(=O)OCC(Cl)(Cl)Cl)C(=O)NCC(=O)N[C@@H](CC(=O)O)C(=O)N[C@@H](Cc2c[nH]c3ccccc23)C(=O)O)C1` (stereo partly drawn) [Example 8, Troc-Ada-Gly-Asp-Trp] has a pIC50 [1] of 6.40.

For `N=C(N)N1CC=C(CC(N)C(=O)NCC(=O)N[C@@H](CC(=O)O)C(=O)N[C@@H](Cc2ccc(O)cc2)C(=O)O)C1` (stereo partly drawn) [Example 10, Ada-Gly-Asp-Tyr], the pIC50 [1] was 5.62.

With `N=C(N)N1CC=C(CC(NC(=O)OCC(Cl)(Cl)Cl)C(=O)NCC(=O)N[C@@H](CC(=O)O)C(=O)N[C@@H](CO)C(=O)O)C1` (stereo partly drawn) [Example 7, Troc-Ada-Gly-Asp-Ser] the pIC50 [1] was 4.84.

In the case of `N=C(N)N1CC=C(CC(NC(=O)OCC(Cl)(Cl)Cl)C(=O)NCC(=O)N[C@@H](CC(=O)O)C(=O)N[C@@H](Cc2ccccc2)C(=O)O)C1` (stereo partly drawn) [Example 9, Troc-Ada-Gly-Asp-Phe], the pIC50 [1] was 5.64.

For D-Pla-D-Phe-L-Choi-Adc [Example 1], the pKi [2] was 7.00, the “increase of thrombin time” value ([3]; test concentration 3.5 nM) was 5 s and the “increase of thrombin time” value ([3]; test concentration 34 nM) was 65 s. For the same compound, the “increase of thrombin time” value ([3]; test concentration 340 nM, experiment stopped after 5 minutes) was over 300 s.
